Series [1] addresses T1, CRALBP (Homo sapiens, UniProt P12271).
T1 construct: made in house
Put plainly: Fluorescence quenching study of binding to CRALBP. As to the method: Apo-CRALBP at 0.5 μM was incubated with 1 μM of 11-cis Retinal (11cRAL), all-trans retinal (atRAL) or N-4-hydroxyphenyl retinamide (HPR) in PBS at room temperature for 1 hour. As a control, same volume of DMSO was added to the Apo-CRABLP solution. The emission spectra were measured between 290 nm to 500 nm with excitation wavelength at 280 nm and 2 nm bandpass (See FIG. 7).
Quenching of CRALBP protein fluorescence with 11-cis retinal (11cRAL). The fluorescence emission of recombinant apo-CRALBP (0.5 μM) was measured using 280 nm excitation (“no 11cRAL”).
Quenching of CRALBP protein fluorescence with HPR. The data shown were obtained using an experimental design identical to that described above. The fluorescence emission of recombinant apo-CRALBP was measured using 280 nm excitation (“no HPR”).
We performed an analysis of the dissociation constant (KD) for 11cRAL and HPR binding to apo-CRALBP (see FIG. 15). […] This calculation is based upon the ligand concentration necessary to fully quench the protein fluorescence. The data reveal that both 11cRAL and HPR quench apo-CRALBP fluorescence maximally at ˜1.5 μM. Thus, although apo-CRALBP is described as an 11 cis-specific retinoid binding protein, it appears to bind HPR as well.

Series [2] concerns mice. Description: Retinoid composition, chromophore regeneration and electrophysiology in HPR-treated mice. The format is in vivo. Particulars: 10 mg/kg daily for 28 days. The source says:
Panels D-F of FIG. 17 are electrophysiological measurements of rod function (panel D), rod and cone function (panel E) and recovery from photobleaching (panel F).

Series [3] has as its system ABCA4−/− mice. Description: HPR drug holiday after 28 days of treatment. The format is in vivo, mouse. How it is done: HPR (10 mg/kg in DMSO) was administered to ABCA4−/− mice daily for a period of 28 days. Control ABCA4−/− mice received only DMSO for the same period. […] Importantly, the observed reductions in lipofuscin autofluorescence persist long after cessation of HPR therapy. HPR (10 mg/kg), or DMSO, administration was discontinued following 28 days of treatment and re-evaluated A2E and precursor levels after 2 weeks and after 4 weeks.
We examined eyecup extracts by HPLC and employed detection by absorbance and fluorimetry. Identity of the indicated peaks was confirmed by on-line spectral analysis and by co-elution with authentic standards. […] Further, the A2E and precursor (A2PE-H2 and A2PE) levels after a […] or 28-day drug holiday remained at or near the levels immediately following 28 days of treatment (i.e., ca. 50% reduction relative to control), although after the 28-day drug holiday, the amount of A2E and precursor (A2PE-H2 and A2PE) had increased by a few percentage points relative to the 12-day drug holiday levels. […] It is clear that peak fluorescence tracks with the abundance of A2E, A2PE and A2PE-H2.
This effect cannot be attributed to long-term reductions in serum retinol as serum retinol had returned to baseline 48 hours following the last HPR dose. […] Furthermore, HPR reduces serum retinol levels, which leads to a reduction in the level of retinol in the eyes of treated animals. Once the level of retinol has been reduced in the eye, there is a time lag in the subsequent increase in retinol levels in the eye. Alone or in combination, the production of A2E, A2PE and A2PE-H2 in the eye remains low despite the absence of HPR in the serum or the eye.

Series [4] concerns the target RBP (Homo sapiens, UniProt P02753). Description: Competition binding assay, RBP-retinol/HPR, fluorescence. As to conditions: physiological temperature (37 C). An excerpt:
Based upon these findings, we sought to further explore the mechanism(s) of retinol reduction during HPR treatment. A tenable hypothesis is that HPR may displace retinol by competing at the retinol binding site on RBP. […] Therefore, one can measure displacement of retinol from the RBP holoprotein by observing decreases in both protein (340 nm) and retinol (470 nm) fluorescence. We performed a competition binding assay using RBP-retinol/HPR concentrations which were similar to those determined from the 14 day trial at 20 mg/kg HPR described above. […] In the control assays, decreases in retinol fluorescence were associated with concomitant increases in protein fluorescence, see FIG. 3a. This effect was determined to be due to temperature effects as the dissociation constant of RBP-retinol increases (decreased affinity) with increased time at 37 C.

For series [5], the target named is T1, CRALBP. Description: Size exclusion chromatography study of binding to CRALBP. Particulars: 4 μM apo-CRALBP, 8 μM ligand. As to the method:
Apo-CRALBP at 4 μM was incubated with 8 μM of 11cRAL, atRAL or HPR in PBS at room temperature for 1 hour. In control experiment, equivalent volume of DMSO was added to the CRALBP solution. 50 μl of each sample mixture was analyzed by BioRad Bio-Sil SEC125 Gel Filtration Column (300×7.8 mm).

T1 sequence (P12271 whole entry, species assumed): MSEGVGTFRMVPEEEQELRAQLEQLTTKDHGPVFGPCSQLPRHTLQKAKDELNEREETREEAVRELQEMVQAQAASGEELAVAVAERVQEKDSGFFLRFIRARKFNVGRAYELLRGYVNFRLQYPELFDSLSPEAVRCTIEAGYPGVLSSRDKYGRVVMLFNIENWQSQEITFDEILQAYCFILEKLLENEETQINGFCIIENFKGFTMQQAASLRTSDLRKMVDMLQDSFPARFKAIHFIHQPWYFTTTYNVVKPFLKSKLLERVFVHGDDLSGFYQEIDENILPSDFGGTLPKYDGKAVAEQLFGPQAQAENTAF

On to `CC1=C(/C=C/C(C)=C/C=C/C(C)=C/C(=O)Nc2ccc(O)cc2)C(C)(C)CCC1` [HPR, N-(4-hydroxyphenyl)retinamide], for which, in series [1], the “concentration of maximal quenching of apo-CRALBP fluorescence” value is about 1.5 µM. In series [1] (0.5 μM apo-CRALBP, 1 μM ligand, 1 hour, vs DMSO), the “quenching of CRALBP fluorescence emission” value is “lowest”. Moreover, in series [1] (0.5 μM recombinant apo-CRALBP, 280 nm excitation), the “concentration dependence of CRALBP protein fluorescence quenching” value is listed as “concentration dependent manner”. The Kd in series [1] (transformation of fluorescence quenching data, read-out: dissociation constant (KD) for binding to apo-CRALBP) was about 30 nM. Also, the “regeneration of visual chromophore” value in series [2] is listed as “does not affect”. In addition, the “reduction of A2E and precursor (A2PE-H2 and A2PE) levels relative to control” value in series [3] (10 mg/kg 28 days, then 12- or 28-day drug holiday) is given as “ca. 50%”. Further, in series [3] (28-day drug holiday), the “detection in the eyes after drug holiday” value is listed as “unable to detect”. In addition, the “time for serum retinol to return to baseline after the last HPR dose” value in series [3] (mouse, in vivo) is 48 h. In addition, the “displacement of retinol from RBP-retinol holoprotein” value in series [4] is reported as “efficiently displaces retinol”. Further, in series [5], the “ligand bound to CRALBP (monomer elution peak absorbance)” value is “only small amount of HPR is bound to CRALBP”.

For the origin of these results see patent US8410168B2, “Methods and compositions for treating ophthalmic conditions with retinyl derivatives” (Acucela, Inc., priority 2004, dated 2013).
